Consider two compounds from patent publication US6185453A, “Iontophoretic delivery of integrin inhibitors” (DuPont Pharmaceuticals Company, priority 1997, dated 2001).

Data set [1] can be described thus: In vitro excised porcine skin iontophoretic delivery (flow-through diffusion cell). It is filed as in vitro ADME. The settings on record: for Dose Delivered: 18 hours iontophoresis, 2 cm^2 patch. The protocol:
The iontophoretic delivery of a representative GPIIb/IIIa inhibitor compound, Compound A, was carried out in a flow-through diffusion cell in vitro excised skin delivery system. The transdermal patch design used in these studies included an absorbent drug reservoir with 2 cm^2 active area of skin contact and a volume of 0.3 mL. The drug reservoir compartment was separated from the electrode compartment by a semi-permeable membrane with a molecular weight cutoff of 100. The electrode compartment included a silver […] and a cation exchange media in a hydrogel matrix. The drug reservoir compartment was filled with dosing solution just before application to the skin. A silver-silver chloride mesh return cathode was located upstream of the polycarbonate flow-through cells. Freshly dermatomed (1 mm) porcine skin was mounted in the cells on a porous support polyethylene. The patches included an absorbent reservoir in contact with silver and silver chloride electrodes. They were dosed with aqueous solutions of the drug and then placed on top of the excised skin. The patches were secured by a spring loaded mechanism which maintained even pressure over the patch. The cells were "perfused" by means of a peristaltic pump which pulls receiver solution through them. Effluents from the cells were collected with a fraction collector. Flow rates were typically 0.25 mL/min. The receiver solution was an isotonic pH 7.4 buffered saline solution containing 10 mM HEPES, 100 mM NaCl, PEG 400, and a surfactant, Pluronic P-103. Iontophoresis current was provided by a constant current power supplies, and the applied currents and cell voltages were recorded with a data logger. The flux profile vs. time and the cumulative dose delivered with 18 hours of iontophoresis were determined. This was followed by 3 hours where no current was applied. Concentrations of Compound A were determined using a radiolabeled marker or by HPLC. A study was performed using applied currents of 0-800 μA, and concentrations of Compound A in the patch of 50 or 100 mg/mL. Additional studies were performed using lower applied currents, lower concentrations of Compound A in the patch, and dosing solutions containing various concentrations of NaCl. […] At 100 μA the delivery rate of Compound A was approximately 10 μg/hr for the 2 cm^2 surface area, which was also within the targeted range. An alternative patch design, a monolithic patch rather than the membrane separated patch, was also tested. This patch is composed of two layers of absorbent material between which is sandwiched a silver anode.

Data set [2] in a line: In vivo swine iontophoretic delivery / IV infusion, plasma concentrations (LC-MS). On the set-up: species or system Yorkshire swine. The settings on record: for in vivo delivery rate: 10 mg/mL, by comparison with IV infusion of Compound B. An excerpt:
In each experiment, the patches were loaded with drug solution immediately before application to the skin of the animals. Unanesthetized Yorkshire swine with weights from about 20 to 35 kg were used. The skin sites receiving the patches were wiped clean with moist gauze pads. Patches were overwrapped with an adhesive, elastic wrap to hold the patches in place. Separate constant current power supplies were provided for each iontophoresis patch system. Current and voltage readings were made and recorded on-board dataloggers. Blood samples were withdrawn from the vena cava through an IV catheter into VACUTAINER™ blood collection tubes containing EDTA. After gentle mixing, the tubes were centrifuged to separate the plasma, which transferred to clean polypropylene tubes and frozen on dry ice. Frozen samples were stored at -80° C. until assayed.
Compound B concentrations in plasma were determined by LC-MS. The patches used were of the monolithic design described above, and having a 2 cm^2 skin coverage area. Patches were filled with solutions containing 10-20 mg/mL Compound A and 154 mM NaCl. […], plasma concentrations of Compound B increased for the first 5-8 hours of dosing and then reached steady-state.Steady-state plasma concentrations of approximately 1-2 ng/mL were attained. After an intravenous infusion of Compound B at 10 μg/hr, steady-state plasma concentrations of Compound B were also approximately 1-2 ng/mL. Therefore, the transdermal delivery rate at steady-state was approximately 10 μg/hr.
Pigs were also dosed with patches containing 10 mg/mL of Compound A, using currents of 50 and 100 μA. In these studies four patches were used for each pig, for a total skin coverage area of 8 cm^2. […] Actual in vivo delivery rates were estimated by comparison with plasma concentrations after intravenous infusion of Compound B. The 50 μA current delivered Compound A at approximately 25 μg/hr, and the 100 μA current delivered Compound A at approximately 40 μg/hr.

Where [3] appears, read: iontophoresis of 10 mg/mL Compound A, 50 and 100 μA, four patches (8 cm^2).

“And” between values parts separate entries of the source, which are not always exact repeats. Equal values may be shown once. Where a name gives a salt, the structure may show the parent alone.

As for `CCCCOC(=O)N[C@@H](CNC(=O)C[C@H]1CC(c2ccc(C(=N)N)cc2)=NO1)C(=O)OC` [Compound A, methyl-N^3-[2-{3-(4-formamidinophenyl)-isoxazolin-5(R)-yl}-acetyl]-N^2-(n-butyloxycarbonyl)-2,3-(S)-diaminopropionate methanesulfonate salt], in data set [1], the skin permeation entry is recorded as “very low skin permeation”. In addition, the “Dose Delivered” value in data set [1] (0 μA, 100 mg/mL Compound A (as salt), methanesulfonate salt) is 0.2 mg and 0.1 mg; in data set [1] (200 μA, 100 mg/mL Compound A (as salt), methanesulfonate salt), 1.2 mg and 1.1 mg and 1.0 mg; in data set [1] (400 μA, 50 mg/mL Compound A (as salt)), 1.1 mg; in data set [1] (800 μA, 50 mg/mL Compound A (as salt), methanesulfonate salt), 2.1 mg and 2.3 mg. Also, the “transdermal delivery rates versus applied current” value in data set [1] (10 mg/mL Compound A, 154 mM NaCl, 0, 25, 50, and 100 μA) is “proportional to the applied current”. The “time to maximum delivery” value in data set [1] (50 or 100 mg/mL Compound A, iontophoresis) was “about 5 hours”. Moreover, in data set [1] (100 μA, 10 mg/mL Compound A, 154 mM NaCl, 2 cm^2), the delivery rate entry is “approximately 10 μg/hr”. Moreover, the “variability in delivery from skin to skin” value in data set [1] (FIG. 2, 10 mg/mL, 154 mM NaCl, 50 μA) is given as “extremely low”. Moreover, in data set [1] (FIG. 3, 10 mg/mL, 9 mg/mL NaCl, 0-100 μA), the “in vitro delivery versus current” value is given as “proportional to increase in current”. The consistency of delivery result in data set [1] (for any specified drug concentration and applied current) is “generally very consistent”. Moreover, in data set [1] (in the presence of the applied current), the transdermal delivery entry was “greatly increased”. In addition, the delivery rates entry in data set [1] (when the current was turned off) is listed as “very low levels”. The dosing rates in data set [1] (within the target range, 50 or 100 mg/mL Compound A) lay in the range of 5 to 250 µg/h. The “transdermal delivery rate at steady-state” value in data set [2] (20 mg/mL Compound A, 100 μA, 2 cm^2, by comparison with IV infusion) is given as “approximately 10 μg/hr”. In data set [2] (20 mg/mL, 154 mM NaCl, 200 μA, 2 cm^2 vs IV 10 μg/h), the “blood levels, iontophoresis (FIG. 5) compared with constant IV infusion of Compound B (FIG. 4)” value is “similar”. In addition, the “in vivo delivery rate” value in data set [2] (50 μA, four patches (8 cm^2)) was “approximately 25 μg/hr”; in data set [2] (100 μA, four patches (8 cm^2)) it was “approximately 40 μg/hr”. Further, the “variability in plasma levels with iontophoresis” value in data set [2] (FIG. 5, 20 mg/mL, 154 mM NaCl, 200 μA, 2 cm^2) is recorded as “extremely low”. For the same compound, the “in vivo conversion to acid form (Compound B)” value in data set [2] (in vivo) is on record as “rapidly converted to its acid form”.
In data set [2] (approximately, intravenous infusion of Compound B at 10 μg/hr), `CCCCOC(=O)N[C@@H](CNC(=O)C[C@H]1CC(c2ccc(C(=N)N)cc2)=NO1)C(=O)O` [Compound B, N^3-[2-{3-(4-formamidinophenyl)-isoxazolin-5(R)-yl}-acetyl]-N^2-(n-butyloxycarbonyl)-2,3-(S)-diaminopropanoic acid] registered a steady-state plasma concentrations of 1 to 2 ng/mL. Besides, in data set [2] (setting [3]), the “period of plasma concentration increase before apparent steady-state” value is reported as “first several hours”, the “plasma concentrations during 24 hours of iontophoretic dosing” value is “fairly constant” and the “plasma concentrations versus applied current” value was “proportional to the applied current”. For the same compound, the “time during which plasma concentrations increased before steady-state” value in data set [2] (iontophoresis of 20 mg/mL Compound A, 100 μA, 2 cm^2) is 5 to 8 h.
